# Earlier results, collected in article PMC2965246 (Nucleic Acids Research, 2010).
# System: GRPR
# Settings: reported value
substance,measurement,value
bombesin [BBN],binding affinity to the GRPR,79 nM
